How the values were obtained:
[1] = system: prostate cancer cell line DU145
Method: (§1) To confirm, baseline toxicity experiments were conducted with the fully assembled nanoparticles and its constituents. […] MTT assays detected changes in cell proliferation and viability.

[2] = system: prostate cancer cell line PC3
Method: as §1

[3] = system: normal skin fibroblast cell line GM38
Method: as §1

Measured: baseline cytotoxicity over increasing doses

C=CC1=C(C)c2cc3[nH]c(cc4nc(cc5[nH]c(cc1n2)c(C)c5CCC(=O)O)C(CCC(=O)O)=C4C)c(C)c3C=C [PPIX, protoporphyrin IX]
No appreciable differences: all assays above

Source: US20210268129A1, “Theranostic Radiophotodynamic Therapy Nanoparticles” (priority 2018, published 2021)
